For experiment [1], the target named is KCNQ4 potassium ion channel (Homo sapiens, UniProt P56696). Description: High throughput atomic absorption Rb+ efflux testing, CHO cell of KCNQ4 channel. It is filed as cell-based. To be noted: for EC50: CHO cell of KCNQ4 channel. From the text: Atomic absorption Rb^+ efflux testing is a fast and safe selection method for high throughput potassium channel moderator, and is characterized in that the activity of the ion channel and the control effect of the opener are directly reflected. Rb and K have similar atomic size, and potassium ion channel is permeable to Rb^+. By testing concentration of the Rb^+ efflux, a status of the potassium channel, which is an open status or a close status, can be determined. Rb has specific absorption at 780 nm, and Rb^+ concentration can be determined by atomic absorption spectroscopy. Accordingly, analysis method of atomic absorption spectroscopy can be used to select the opener/inhibitor of potassium channel through high throughput of Rb^+ efflux.
Stable cell transfer of CHO cell of KCNQ4 channel at log phase and inoculate in 96-well culture plate at a density of 2×10^4 unit/well. Each concentration has a triplicate-hole setting, and a control setting with solvent of corresponding concentration. Allow growth against the well-wall overnight, then discard the culture medium, add 200 μl loading buffer which contains RbCl, and culture in 5% CO2 at 37° C. for 3 hours. Then remove the loading buffer and wash with wash buffer for 3 times. Screen for the KCNQ opener, dilute testing compound with depolarization buffer, add 200 μl of the above solvent into the cell and allow reaction for 10 minutes. Incubate for 10 minutes, then carefully draw 200 μl supernatant to another 96-well culture plate, use ICR8000 atomic absorption spectrometry to determine the Rb^+ atomic absorption at 780 nm. Based on the equation Fsupern=(Rb_supern/cpd/Rb_supern/d)×100, calculate the corresponding rate of efflux.

In experiment [2] the test system is male mice. Briefly: The maximum electric shock experiment. It is filed as in vivo. The settings on record: Mus musculus, corneal electrode 26 mA 0.4 second, forced feeding 10, 25, 50 mg/kg, read-out: ED50 anticonvulsant effect. From the text: “The maximum electric shock” experiment: The experiment uses electrical method to measure non-specific CNS-induced seizures.
Pharmaceutical composition used: the compound number 21 for the testing group, phenyloin for positive control group.
Experimental method: Apply corneal electrode in male mice of each group, apply 26 mA square wave current for 0.4 second, and forced feeding the pharmaceutical composition after inducing convulsion which is characterized by hindlimb tonic extension (Wlaz et al., Epilepsy Research 1998, 30, 219-229). Dosages for the testing group are: 10 mg/kg (body weight) per administration, 25 mg/kg (body weight) per administration, and 50 mg/kg (body weight) per administration respectively. For control group, dosage is 25 mg/kg (body weight) per administration.

The target in a further experiment is KCNQ2/Q3 channel (Homo sapiens, UniProt O43525+O43526). Briefly: Patch-clamp electrophysiology testing, CHO cell of KCNQ2/Q3 channel. The experiment is classed as cell-based. To be noted: clamping voltage -80 mV, depolarized to -40 mV, FIG. 5a. From the text:
(2) Testing method: Culture of ovary cell of Chinese hamster (CHO, Chinese Hamster Overy): steadily transfer the CHO cell culture of KCNQ2/Q3 channel into a composition containing 10% fetal bovine serum, 100 U/ml penicillin and DMEM culture solution of streptomycin, and allow digestion passage of trypsin. Spread the cell on a 12 mm round-shaped coverslip and culture on a 24-well cell culture plate.
Record membrane current using patch-clamp technique: The patch-clamp amplifier is HEKA-EPC10. The electrode solution uses amphotericin B (final concentration of 0.1˜0.2 mg/ml) for perforated patch clamp recording. After polishing the microelectrodes, inject the electrode solution and control the to 2˜4MΩ. The electrode solution used for recording CHO cell are (mM): KCl 160, HEPES 5, MgCl2 3, CaCl2 1, EGTA 2, with pH adjusted to 7.4 with KOH; Extracellular electrode composition are (mM): NaCl 160, KCl 2.5, HEPES 10, glucose 8, MgCl2 1, CaCl2 5. After the cell membrane and microelectrodes form a high resistance seal, clamp at −80 mV, wait 5-10 min and record the readings according to different activation procedures.
For orientation: The patch-clamp technique gives a direct electrical read-out from membranes.

For a further experiment, the target named is T1, KCNQ2/3 (Homo sapiens, UniProt O43525+O43526).
T1 construct: expressed in transfected cells
Description: High throughput atomic absorption Rb+ efflux testing, KCNQ2/3. It is filed as cell-based. To be noted: Rb+ efflux by atomic absorption.

A further experiment relates to rat. Description: Amygdala kindling experiment. It is filed as in vivo. The settings on record: vs pre-administration, p<0.01 vs control group. The source says:
This experiment is used to measure the disease progress, when further stimulation is applied, the seizure level of the animal in this model will be increased as in the situation of normal animal.
Pharmaceutical composition used: suspended solution of sodium carboxymethyl cellulose containing the compound number 21 for the testing group, suspended solution of sodium carboxymethyl cellulose for the positive control group, with concentration equal to the suspended solution of the testing group.
Testing method: perform surgery to implant tri-polar electrode into dorsolateral amygdale of rat. After surgery, allow the animal to recover, then administer testing compound or pharmaceutical solvent agent of different dosages to rat of different groups. The animal is treated with electrical stimulation at a value which is +25 μA of the initial discharge threshold on a daily basis for 3-5 weeks, and record each seizure incidence in which the level of seizure, the duration of the seizure, and electrical duration after discharge are recorded (Racine. Electroencephalography and Clinical Neurophysiology 1972, 32, 281-294). Dosage level is the same as that of exemplary embodiment 11.

Experiment [3] concerns male mice. Briefly: Pilocarpine-induced seizures experiment. It is filed as in vivo. To be noted: Mus musculus, ip, pilocarpine 250 mg/kg i.p., compound by intraperitoneal injection 1, 5, 10 mg/kg, read-out: ED50 anti-epilepsy effect. The procedure:
Pilocarpine-induced seizure is, in general, difficult to treat by using the existing anti-epileptic drug, so it belongs to “drug-resistance epilepsy” model.
Pharmaceutical composition used: the compound number 24 for the testing group, phenyloin for positive control group.
Experimental method: Inject 250 mg/kg pilocarpine into the male mice of each group by intraperitoneal injection, induce pilocarpine-induced seizure, observe walking abnormality caused by seizures activities in 30 minutes (Starr et al, Pharmacology Biochemistry and Behavior 1993, 45, 321-325). Apply intraperitoneal injection. Dosages for the testing group are: 1 mg/kg (body weight) per administration, 5 mg/kg (body weight) per administration, and 10 mg/kg (body weight) per administration respectively. For control group, dosage is 50 mg/kg (body weight) per administration.

SMILES strings stand for the structures. Like-named read-outs stand apart in the source and are kept apart here.

`O=c1cc(CCl)[nH]c2c(-c3ccccc3)c(C(F)(F)F)nn12` [Compound 21, 5-chloromethyl-3-phenyl-2-trifluoromethylpyrazolo[1,5-a]pyrimidin-7(4H)-one]: the EC50 in experiment [1] (Rb+ efflux by atomic absorption, read-out: KCNQ4) was 23900 ± 430 nM. Besides, the ED50 with male mice [2] stood at 12.2 ± 0.08 mg/kg. Further, the “activation of KCNQ2/3 channel current” value on KCNQ2/Q3 channel is given as “can activate the KCNQ2/3 channel current significantly”. At KCNQ2/3, this compound had an EC50 of 3610 ± 6020 nM. Also, in the experiment with rat, the seizure level entry is “increased in the seizure level” and the “time period after discharge process of amygdala” value is reported as “shorten time period after discharge process of amygdale”.

On to `O=c1cc(-c2cc(F)c(Cl)nc2Cl)[nH]c2c(-c3ccccc3)c(C(F)(F)F)nn12` [Compound 24], for which, in experiment [1] (Rb+ efflux at 0.03, 0.1, 0.6, 1, 3 and 10 μM, FIG. 4), the “activating effect on the CHO cell of the KCNQ4 potassium ion channel” value is “dose-dependent activating effect”. Further, the EC50 turned out to be 210 ± 80 nM in experiment [1] (Rb+ efflux, 0.03-10 μM, FIG. 4, read-out: EC50) and 78 ± 20 nM at KCNQ2/3. Also, in the experiment on male mice [3], the ED50 was 5.1 ± 0.05 mg/kg.
